Legend:
Assay in all cases: relative viability (nuclei count vs DMSO), 5 days (fraction); higher = more cells survive
[1] = compound: COc1cc(N2CCC(N3CCN(C)CC3)CC2)ccc1Nc1ncc(Cl)c(Nc2ccccc2S(=O)(=O)C(C)C)n1 [NVP-TAE684] + CC(C)C[C@H](NC(=O)[C@H](Cc1ccccc1)NC(=O)c1cnccn1)B(O)O [Bortezomib] (partner 0.002 µM)
Outline: (§1)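 Values are medians from duplicate plates. Each reflects relative viability, defined as the nuclei count of treated wells over that of vehicle wells. Lung cancer cell lines in 1536-well plates were pin-tool dosed one day after seeding with one drug alone or with a fixed anchor-drug dose plus five library-drug doses (not always all listed) in √10 steps, then fixed, stained and imaged at 4× after 5 days.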

[2] = compound: C1=CC=C2C(=C1)N=C(S2)C(C#N)C3=NC(=NC=C3)NCCC4=CN=CC=C4 + CC(=O)Nc1cccc(-n2c(=O)n(C3CC3)c(=O)c3c(Nc4ccc(I)cc4F)n(C)c(=O)c(C)c32)c1 [Trametinib] (partner 0.02 µM)
Outline: as §1

[3] = compound: COc1cc2/c(=N/c3ccc(Br)cc3F)nc[nH]c2cc1OCC1CCN(C)CC1 [Vandetanib] + CS(=O)(=O)CCNCc1ccc(-c2ccc3ncnc(Nc4ccc(OCc5cccc(F)c5)c(Cl)c4)c3c2)o1 [Lapatinib] (partner 2 µM)
Outline: as §1

[4] = compound: COc1cc(N2CCC(N3CCN(C)CC3)CC2)ccc1Nc1ncc(Cl)c(Nc2ccccc2S(=O)(=O)C(C)C)n1 [NVP-TAE684] + CS(=O)(=O)CCNCc1ccc(-c2ccc3ncnc(Nc4ccc(OCc5cccc(F)c5)c(Cl)c4)c3c2)o1 [Lapatinib] (partner 2 µM)
Outline: as §1

| Cell Line | relative viability ([1]; first compound 0.2 µM) | relative viability ([1]; first compound 0.6325 µM) | relative viability ([2]; first compound 0.005 µM) | relative viability ([2]; first compound 0.01581 µM) | relative viability ([2]; first compound 0.05 µM) | relative viability ([2]; first compound 0.1581 µM) | relative viability ([2]; first compound 0.5 µM) | relative viability ([3]; first compound 0.02 µM) | relative viability ([3]; first compound 0.06325 µM) | relative viability ([3]; first compound 0.2 µM) | relative viability ([3]; first compound 0.6325 µM) | relative viability ([3]; first compound 2 µM) | relative viability ([4]; first compound 0.2 µM) | relative viability ([4]; first compound 0.6325 µM) | relative viability ([4]; first compound 2 µM) | relative viability ([1]; first compound 2 µM) |
| --- | --- | --- | --- | --- | --- | --- | --- | --- | --- | --- | --- | --- | --- | --- | --- | --- |
| NCI-H596 | 1.3 | 0.919 | 0.7 | 0.86 | 0.762 | 0.777 | 0.765 | 1.1 | 0.912 | 1.11 | 1.1 | 0.947 | 0.915 | 0.949 | 0.893 | – |
| NCI-H647 | 1.38 | 1.11 | 0.407 | 0.515 | 0.45 | 0.546 | 0.451 | 1.02 | 1.09 | 1.09 | 1.08 | 0.999 | 1.34 | 1.02 | 0.686 | 0.77 |
| NCI-H650 | 0.784 | 0.562 | 0.969 | 0.968 | 0.863 | 1.04 | 1.04 | 1.06 | 1.04 | 0.636 | 0.896 | 0.308 | – | 0.776 | 0.706 | 0.614 |
| NCI-H661 | 0.791 | 0.88 | 0.423 | 0.535 | 0.542 | 0.674 | 0.589 | 0.547 | 0.532 | 0.555 | 0.607 | 0.365 | 0.518 | 0.51 | 0.493 | 0.842 |
| NCI-H727 | 0.684 | 0.887 | 0.39 | 0.364 | 0.399 | 0.381 | 0.407 | 0.847 | 0.661 | 0.786 | 0.91 | 0.625 | 0.917 | 0.695 | 0.346 | 0.506 |
| NCI-H838 | 0.86 | 0.902 | 0.576 | 0.507 | 0.492 | 0.561 | 0.593 | 0.937 | 0.953 | 0.958 | 0.958 | 0.99 | 1.12 | 0.758 | 0.287 | 0.399 |
| NCI-H1355 | 1.23 | 1.17 | 0.439 | 0.425 | 0.473 | 0.494 | 0.324 | 0.984 | 0.926 | 0.963 | 1.05 | 0.924 | 1.18 | 0.855 | 0.636 | 0.859 |
| NCI-H1437 | 0.452 | 0.487 | 0.503 | 0.55 | 0.52 | 0.539 | 0.427 | 0.758 | 0.767 | 0.764 | 0.76 | 0.806 | 0.874 | 0.729 | 0.418 | 0.322 |
| NCI-H1650 | 0.194 | 0.183 | 0.49 | 0.492 | 0.604 | 0.715 | 0.513 | 0.704 | 0.734 | – | 0.988 | 0.765 | 0.958 | 0.684 | 0.347 | 0.173 |
| NCI-H1651 | 0.987 | 0.98 | 0.825 | 0.831 | 0.827 | 0.933 | 0.857 | 0.776 | 0.834 | 0.743 | 0.698 | 0.846 | 0.998 | 0.834 | 0.563 | 0.93 |
| NCI-H1666 | 0.849 | 0.71 | 0.923 | 0.838 | 0.907 | 0.836 | 0.847 | 0.59 | 0.658 | 0.444 | 0.739 | 0.629 | 0.588 | 0.447 | 0.283 | 0.4 |
| NCI-H1734 | 0.986 | 0.982 | 0.629 | 0.745 | 0.578 | 0.75 | 0.649 | 0.951 | 1.02 | 1.11 | 1.04 | 0.991 | 1.26 | 0.983 | 0.698 | 0.601 |
| NCI-H1755 | – | 0.949 | 0.764 | 0.736 | 0.746 | 0.848 | 0.761 | 1.06 | 0.978 | 0.983 | 1.02 | 1.01 | 0.996 | 1.06 | 0.891 | 0.838 |
| NCI-H1792 | 0.779 | 0.967 | – | 0.44 | 0.421 | 0.387 | 0.385 | 0.886 | 0.824 | 0.869 | 0.874 | 0.862 | 0.913 | 0.825 | 0.89 | 0.819 |
| NCI-H1915 | 1.09 | 1.03 | – | 0.318 | 0.304 | 0.329 | 0.305 | 0.905 | 0.972 | 1.05 | 0.93 | 0.928 | 1.02 | 1.01 | 0.948 | 1.05 |
